Compound in one experiment: NC(=O)CCCCC1CCSS1 [lipoamide]
Kind of experiment: thermal stability z-score vs DMSO; higher = more thermally stabilized by treatment. Conditions: HeLa, lipoamide concentration 100 µM. On the procedure:
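Cellular thermal proteome profiling in HeLa cells. Cells were treated with 100 µM lipoamide for 1 h, with or without 1 mM arsenate for a further 1 h, then heated to ten temperatures (37-66.3 °C), and soluble protein was quantified by TMT mass spectrometry relative to 0.1% DMSO controls. The thermal stability score (sum of log2 fold changes minus the abundance score) was transformed to a z-score; mean of n = 3 experiments.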

Compound in a further experiment: O=[As]([O-])(O)O.[K+] [potassium arsenate]
Described as above. The note with it: HeLa; arsenate concentration 1 mM. On the procedure: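 Cellular thermal proteome profiling in HeLa cells treated with 1 mM arsenate for 1 h (DMSO pretreatment), heated to ten temperatures (37-66.3 °C). Soluble protein was quantified by TMT mass spectrometry relative to DMSO controls; the thermal stability score was transformed to a z-score; mean of n = 3 experiments.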

Where [1] appears, read: arsenate co-treatment: 1 mM arsenate 1 h.
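Further: each temperature applied for 3 min, abundance score taken as mean log2 fold change at the two lowest temperatures, z-score obtained by mean subtraction and division by SD.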

Chain of UniProt Q14186 (Q14186 whole entry): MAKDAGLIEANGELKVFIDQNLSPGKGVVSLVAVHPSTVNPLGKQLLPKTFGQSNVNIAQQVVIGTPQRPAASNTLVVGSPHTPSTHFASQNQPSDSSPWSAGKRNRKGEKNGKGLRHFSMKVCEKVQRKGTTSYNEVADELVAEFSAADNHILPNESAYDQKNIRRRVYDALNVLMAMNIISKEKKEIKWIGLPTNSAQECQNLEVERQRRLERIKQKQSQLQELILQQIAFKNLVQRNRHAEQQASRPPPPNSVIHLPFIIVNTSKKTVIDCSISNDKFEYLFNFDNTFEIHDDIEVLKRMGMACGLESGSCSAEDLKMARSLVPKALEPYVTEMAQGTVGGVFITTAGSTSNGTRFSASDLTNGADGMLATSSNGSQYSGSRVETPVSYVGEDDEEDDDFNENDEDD
Chain of UniProt Q8ND24 (Q8ND24 whole entry): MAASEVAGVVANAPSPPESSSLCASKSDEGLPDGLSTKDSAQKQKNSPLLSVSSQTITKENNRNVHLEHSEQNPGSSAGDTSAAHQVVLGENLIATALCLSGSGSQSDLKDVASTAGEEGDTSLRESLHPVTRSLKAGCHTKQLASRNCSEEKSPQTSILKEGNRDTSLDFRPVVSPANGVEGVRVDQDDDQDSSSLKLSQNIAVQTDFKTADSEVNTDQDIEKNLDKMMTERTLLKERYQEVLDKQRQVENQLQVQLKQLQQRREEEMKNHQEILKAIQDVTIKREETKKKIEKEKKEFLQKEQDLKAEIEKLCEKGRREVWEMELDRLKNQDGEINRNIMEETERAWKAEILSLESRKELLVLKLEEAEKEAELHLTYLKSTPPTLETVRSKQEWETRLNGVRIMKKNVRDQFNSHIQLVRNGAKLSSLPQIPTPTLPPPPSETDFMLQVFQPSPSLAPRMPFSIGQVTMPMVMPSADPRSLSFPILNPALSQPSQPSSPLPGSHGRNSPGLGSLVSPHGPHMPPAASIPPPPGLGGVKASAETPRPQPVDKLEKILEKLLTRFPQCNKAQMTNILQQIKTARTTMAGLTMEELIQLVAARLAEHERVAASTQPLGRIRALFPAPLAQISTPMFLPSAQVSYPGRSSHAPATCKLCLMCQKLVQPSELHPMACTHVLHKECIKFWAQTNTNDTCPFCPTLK
Chain of UniProt Q9NYV4 (Q9NYV4 whole entry, looked up): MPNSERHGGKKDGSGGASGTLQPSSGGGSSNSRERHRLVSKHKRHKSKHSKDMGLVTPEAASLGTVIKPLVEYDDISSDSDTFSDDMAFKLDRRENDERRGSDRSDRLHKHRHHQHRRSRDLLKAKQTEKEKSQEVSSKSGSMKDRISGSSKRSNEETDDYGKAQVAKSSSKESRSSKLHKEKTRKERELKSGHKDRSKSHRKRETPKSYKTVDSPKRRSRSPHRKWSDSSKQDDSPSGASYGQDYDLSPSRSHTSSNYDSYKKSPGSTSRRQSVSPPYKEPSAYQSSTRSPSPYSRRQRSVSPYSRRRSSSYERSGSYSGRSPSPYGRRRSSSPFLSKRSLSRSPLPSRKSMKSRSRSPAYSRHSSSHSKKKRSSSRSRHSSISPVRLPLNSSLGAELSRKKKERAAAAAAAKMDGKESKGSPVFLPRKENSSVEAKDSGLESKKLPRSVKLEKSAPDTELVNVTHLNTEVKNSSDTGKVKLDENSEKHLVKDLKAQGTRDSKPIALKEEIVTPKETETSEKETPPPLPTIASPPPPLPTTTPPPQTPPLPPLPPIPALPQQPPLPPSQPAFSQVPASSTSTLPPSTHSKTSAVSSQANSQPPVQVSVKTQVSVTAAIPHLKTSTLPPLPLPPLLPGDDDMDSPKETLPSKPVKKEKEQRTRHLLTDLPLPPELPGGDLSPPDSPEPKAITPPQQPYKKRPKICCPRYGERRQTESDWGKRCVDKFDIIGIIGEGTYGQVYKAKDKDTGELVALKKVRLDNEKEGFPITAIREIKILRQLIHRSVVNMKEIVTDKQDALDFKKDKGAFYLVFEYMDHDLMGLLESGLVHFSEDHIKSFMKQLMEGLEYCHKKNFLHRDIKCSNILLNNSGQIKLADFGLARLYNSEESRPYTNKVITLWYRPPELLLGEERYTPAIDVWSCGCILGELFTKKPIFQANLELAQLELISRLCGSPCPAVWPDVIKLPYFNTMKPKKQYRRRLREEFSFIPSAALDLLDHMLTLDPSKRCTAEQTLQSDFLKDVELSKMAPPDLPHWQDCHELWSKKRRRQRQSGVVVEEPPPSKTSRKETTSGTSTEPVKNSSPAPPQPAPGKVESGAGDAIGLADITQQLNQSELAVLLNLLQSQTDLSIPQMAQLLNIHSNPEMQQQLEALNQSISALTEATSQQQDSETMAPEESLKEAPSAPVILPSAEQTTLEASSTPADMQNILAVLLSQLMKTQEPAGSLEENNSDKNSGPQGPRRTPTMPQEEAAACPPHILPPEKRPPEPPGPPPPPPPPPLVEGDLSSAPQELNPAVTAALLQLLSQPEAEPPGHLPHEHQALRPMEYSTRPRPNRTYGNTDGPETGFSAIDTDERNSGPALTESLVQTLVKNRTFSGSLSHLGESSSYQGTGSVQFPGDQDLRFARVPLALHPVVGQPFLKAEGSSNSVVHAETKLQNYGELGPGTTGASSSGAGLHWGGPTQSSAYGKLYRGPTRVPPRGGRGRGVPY
Chain of UniProt O95273 (O95273 whole entry): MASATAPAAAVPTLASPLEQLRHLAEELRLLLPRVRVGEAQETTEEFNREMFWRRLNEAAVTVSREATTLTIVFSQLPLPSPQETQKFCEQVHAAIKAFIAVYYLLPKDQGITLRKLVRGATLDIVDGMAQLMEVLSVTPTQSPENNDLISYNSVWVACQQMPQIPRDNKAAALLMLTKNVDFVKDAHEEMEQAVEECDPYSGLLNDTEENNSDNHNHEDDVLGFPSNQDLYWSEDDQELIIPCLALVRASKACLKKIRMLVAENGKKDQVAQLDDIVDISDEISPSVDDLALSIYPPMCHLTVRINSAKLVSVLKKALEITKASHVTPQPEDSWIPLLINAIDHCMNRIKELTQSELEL
Chain of UniProt P13798 (P13798 whole entry): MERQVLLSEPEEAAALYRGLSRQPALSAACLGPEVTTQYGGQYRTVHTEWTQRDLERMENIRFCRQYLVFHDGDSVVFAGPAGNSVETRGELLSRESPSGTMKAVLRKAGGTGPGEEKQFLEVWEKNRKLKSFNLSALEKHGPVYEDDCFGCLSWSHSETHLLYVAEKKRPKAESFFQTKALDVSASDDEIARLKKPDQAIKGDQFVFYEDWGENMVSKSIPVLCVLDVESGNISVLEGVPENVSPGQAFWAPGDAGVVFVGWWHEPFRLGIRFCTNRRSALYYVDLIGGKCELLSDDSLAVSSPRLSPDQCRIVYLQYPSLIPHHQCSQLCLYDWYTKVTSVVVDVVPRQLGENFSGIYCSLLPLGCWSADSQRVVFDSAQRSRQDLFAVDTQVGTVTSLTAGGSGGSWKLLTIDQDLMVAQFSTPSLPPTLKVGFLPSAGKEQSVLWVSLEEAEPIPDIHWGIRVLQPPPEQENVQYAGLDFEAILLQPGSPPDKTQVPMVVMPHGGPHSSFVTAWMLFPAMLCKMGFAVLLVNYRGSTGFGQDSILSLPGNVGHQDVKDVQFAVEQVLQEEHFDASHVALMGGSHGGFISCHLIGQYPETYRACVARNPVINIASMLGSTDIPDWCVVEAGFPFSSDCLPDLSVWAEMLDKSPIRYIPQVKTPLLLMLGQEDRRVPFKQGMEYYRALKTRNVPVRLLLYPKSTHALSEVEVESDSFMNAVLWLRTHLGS
Chain of UniProt O75110 (O75110 whole entry): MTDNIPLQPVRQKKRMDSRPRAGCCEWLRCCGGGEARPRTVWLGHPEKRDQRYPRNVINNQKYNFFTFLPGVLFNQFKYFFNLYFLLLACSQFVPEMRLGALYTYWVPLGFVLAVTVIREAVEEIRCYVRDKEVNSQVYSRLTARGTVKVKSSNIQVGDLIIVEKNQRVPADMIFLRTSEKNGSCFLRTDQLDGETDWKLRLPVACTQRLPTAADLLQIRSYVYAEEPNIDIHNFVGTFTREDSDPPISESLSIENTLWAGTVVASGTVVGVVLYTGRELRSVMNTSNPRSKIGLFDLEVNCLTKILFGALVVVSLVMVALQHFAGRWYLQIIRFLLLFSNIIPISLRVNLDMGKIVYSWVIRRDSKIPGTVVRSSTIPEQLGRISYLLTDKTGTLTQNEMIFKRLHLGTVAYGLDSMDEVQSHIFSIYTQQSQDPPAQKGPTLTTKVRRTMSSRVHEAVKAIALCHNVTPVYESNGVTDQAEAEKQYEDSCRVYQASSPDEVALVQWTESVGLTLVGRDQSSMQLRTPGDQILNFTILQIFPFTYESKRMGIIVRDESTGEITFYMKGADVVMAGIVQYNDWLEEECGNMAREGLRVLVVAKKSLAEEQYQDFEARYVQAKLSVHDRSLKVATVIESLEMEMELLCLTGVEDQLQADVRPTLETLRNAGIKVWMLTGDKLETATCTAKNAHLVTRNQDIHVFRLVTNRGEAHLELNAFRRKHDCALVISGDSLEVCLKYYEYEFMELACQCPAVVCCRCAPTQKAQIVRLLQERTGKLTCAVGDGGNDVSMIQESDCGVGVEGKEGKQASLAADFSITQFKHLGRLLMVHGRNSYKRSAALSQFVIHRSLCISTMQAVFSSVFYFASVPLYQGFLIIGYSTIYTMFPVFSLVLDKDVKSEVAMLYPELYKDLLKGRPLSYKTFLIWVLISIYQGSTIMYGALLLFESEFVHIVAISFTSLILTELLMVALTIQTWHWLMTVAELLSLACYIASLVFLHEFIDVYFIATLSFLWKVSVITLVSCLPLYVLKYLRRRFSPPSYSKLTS
Chain of UniProt P29084 (P29084 whole entry): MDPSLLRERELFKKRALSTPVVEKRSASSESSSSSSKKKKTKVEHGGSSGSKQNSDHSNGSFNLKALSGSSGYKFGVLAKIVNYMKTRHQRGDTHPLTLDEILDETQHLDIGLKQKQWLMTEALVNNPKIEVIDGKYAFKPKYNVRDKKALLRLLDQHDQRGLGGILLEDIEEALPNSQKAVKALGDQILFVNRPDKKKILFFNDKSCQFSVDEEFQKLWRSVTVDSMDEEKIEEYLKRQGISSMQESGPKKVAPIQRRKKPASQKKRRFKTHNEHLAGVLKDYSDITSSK

For CDK12 (UniProt Q9NYV4), the thermal stability z-score with lipoamide (setting [1]) was -0.233; in the experiment with lipoamide (arsenate co-treatment: none) it was 0.0238; with potassium arsenate, -0.614.
The corresponding values for LGALS1 (UniProt P09382) are 0.596, 0.255 and -0.756.
Regarding EPB41L2 (UniProt O43491), the results for the thermal stability z-score with lipoamide (setting [1]), with lipoamide (arsenate co-treatment: none) and in the experiment with potassium arsenate were -0.283, -0.0411 and 0.128, respectively.
As to PRKAB1 (UniProt Q9Y478), the thermal stability z-score with lipoamide (setting [1]) is -0.236; with lipoamide (arsenate co-treatment: none), 0.539; in the experiment with potassium arsenate it was -0.528.
On the same counts, the results for CEP250 (UniProt Q9BV73) are 0.0869, 0.182 and 0.0828.
The corresponding values for HS2ST1 (UniProt Q7LGA3) are 0.123, -0.171 and 0.457.
As for TFDP1 (UniProt Q14186), the results for the thermal stability z-score with lipoamide (setting [1]), in the experiment with lipoamide (arsenate co-treatment: none) and with potassium arsenate were -0.00506, 0.0652 and -0.0388, respectively.
In the case of COPS7B (UniProt Q9H9Q2), the thermal stability z-score with lipoamide (setting [1]) was -0.144; in the experiment with lipoamide (arsenate co-treatment: none), -0.241; with potassium arsenate, -0.241.
In the case of PHF5A (UniProt Q7RTV0), the thermal stability z-score with lipoamide (setting [1]) was 0.703; with lipoamide (arsenate co-treatment: none), 0.339; in the experiment with potassium arsenate, -5.28.
On the same counts, the results for CACUL1 (UniProt Q86Y37) are 0.0904, 0.129 and -0.563.
As for MAP2K6 (UniProt P52564), the thermal stability z-score in the experiment with lipoamide (setting [1]) is -0.0718; in the experiment with lipoamide (arsenate co-treatment: none), 0.061; in the experiment with potassium arsenate, -0.021.
The corresponding values for NDUFS5 (UniProt O43920) are -0.473, -0.963 and 0.133.
Regarding FUCA2 (UniProt Q9BTY2), the thermal stability z-score in the experiment with lipoamide (setting [1]) was -0.251; with lipoamide (arsenate co-treatment: none) it was -0.214; in the experiment with potassium arsenate, 1.09.
The corresponding values for RNF214 (UniProt Q8ND24) are -0.0786, -0.0159 and -0.33.
On the same counts, the results for CCNDBP1 (UniProt O95273) are 0.104, -0.0265 and 0.133.
Regarding KIAA1033 (UniProt Q2M389), the values for the thermal stability z-score in the experiment with lipoamide (setting [1]), in the experiment with lipoamide (arsenate co-treatment: none) and with potassium arsenate were -0.344, -0.193 and -0.0284, respectively.
In the case of GTF2E2 (UniProt P29084), the values for the thermal stability z-score with lipoamide (setting [1]), with lipoamide (arsenate co-treatment: none) and with potassium arsenate were -0.693, -0.556 and 0.0275, respectively.
On the same counts, the results for RPRD2 (UniProt Q5VT52) are 1.99, 1.64 and 0.719.
The corresponding values for VRK2 (UniProt Q86Y07) are -0.383, -0.335 and -0.6.
The corresponding values for ATP9A (UniProt O75110) are 0.482, 0.278 and -0.569.
For the target MAP4 (UniProt P27816), the thermal stability z-score in the experiment with lipoamide (setting [1]) was 0.0996; with lipoamide (arsenate co-treatment: none), 0.243; in the experiment with potassium arsenate, -0.384.
As to APEH (UniProt P13798), the thermal stability z-score in the experiment with lipoamide (setting [1]) amounted to 0.391; with lipoamide (arsenate co-treatment: none), 0.223; with potassium arsenate it was 0.225.
Turning to TIMM44 (UniProt O43615), the thermal stability z-score was 0.147 in the experiment with lipoamide (setting [1]), 0.291 with lipoamide (arsenate co-treatment: none) and -0.65 with potassium arsenate.
